Assay results published in US6914045B2, “Glycopeptide antibiotics” (Wyeth Holdings Corporation, priority 2001, dated 2005).
Converted amounts (≈) assume the structure as drawn.

Assays:
Enterococcus sp. = assay: in vitro antibacterial evaluation, MIC by broth dilution; assay type: cell-based; settings: broth dilution, 18 hours at 35° C.
Summary of the method: (§1)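 Step 1: dilute antibiotic across 64-0.06 μg/mL in Muller-Hinton II […]. Step 2: inoculate at 5×10^5 CFU/mL.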

Staphylococcus sp. = assay: as above; assay type: cell-based; settings: broth dilution, 18 hours at 35° C.; for MIC Staphylococcus aureus-SMITH (GC 4543): strain GC 4543; for MIC Staphylococcus haemolyticus (GC 4546): strain GC 4546
Summary of the method: as §1

Streptococcus sp. = assay: as above; assay type: cell-based; settings: broth dilution, 18 hours at 35° C.
Summary of the method: as §1

[1] = anatomic pathology (histopathology of heart and kidney) in mice; assay type: in vivo; settings: CD-1 mice, 20 mg/kg intravenously daily for 9 days, necropsy day 10, microscopic histopathology
Procedure: Samples of tissues from necropsied mice were formalin-fixed, paraffin-embedded, sectioned, stained with hematoxylin and eosin, and examined microscopically. Histopathologic findings were recorded. These findings were subjectively graded on a scale corresponding to slight, mild, moderate, marked and severe as compared to untreated controls.

Escherichia coli = assay: in vitro antibacterial evaluation, MIC by broth dilution; assay type: cell-based; settings: 18 hours at 35° C.
Summary of the method: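 MIC is the lowest antibiotic concentration (tested 64-0.06 μg/mL) preventing growth of a 5×10^5 CFU/mL inoculum. Determined by broth dilution in Mueller-Hinton II medium following NCCLS standard M7-A2.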

SMILES: CN=C1N(C)CC(C(O)C2NC(=O)C(Cc3ccc(OC4OC(CO)C(OC5OC(CO)C(O)C(O)C5O)C(O)C4O)cc3)NC(=O)C(C(C)c3ccccc3)NC(=O)CNC(=O)C(CO)NC(=O)C(C(O)C3CN(C)C(=NC)N3C3OC(CO)C(O)C(O)C3O)NC2=O)N1C (stereo not drawn) [Example 64, Cyclo[glycyl-β-methylphenylalanyl-O-(4-O-hexopyranosylhexopyranosyl)tyrosyl-3-(1,3-dimethyl-2-(methylimino)imidazolidin-4-yl)seryl-3-[3-hexopyranosyl-1-methyl-2-(methylimino)imidazolidin-4-yl]-serylseryl]]
- MIC Enterococcus avium (GC 4558) (Enterococcus sp.; Enterococcus avium (GC 4558)): 128 µg/mL (≈ 93.7 µM)
- MIC Enterococcus faecalis (ATCC 29212) (Enterococcus sp.; Enterococcus faecalis (ATCC 29212)): >128 µg/mL
- MIC Enterococcus faecalis (GC 4552) (Enterococcus sp.; Enterococcus faecalis (GC 4552)): >128 µg/mL
- MIC Enterococcus faecalis (GC 4553) (Enterococcus sp.; Enterococcus faecalis (GC 4553)): >128 µg/mL
- MIC Enterococcus faecalis (GC 4554) (Enterococcus sp.; Enterococcus faecalis (GC 4554)): >128 µg/mL
- MIC Enterococcus faecalis (GC 6189) (Enterococcus sp.; Enterococcus faecalis (GC 6189)): >128 µg/mL
- MIC Enterococcus faecium (GC 2243) (Enterococcus sp.; Enterococcus faecium (GC 2243)): >128 µg/mL
- MIC Enterococcus faecium (GC 4556) (Enterococcus sp.; Enterococcus faecium (GC 4556)): >128 µg/mL
- MIC Enterococcus faecium (GC 4557) (Enterococcus sp.; Enterococcus faecium (GC 4557)): >128 µg/mL
- MIC Enterococcus avium (GC 4558) (Enterococcus sp.): 128 µg/mL (≈ 93.7 µM)
- MIC Enterococcus faecalis (ATCC 29212) (Enterococcus sp.): >128 µg/mL
- MIC Enterococcus faecalis (GC 2242) (Enterococcus sp.): >128 µg/mL
- MIC Enterococcus faecalis (GC 2691) (Enterococcus sp.): >128 µg/mL
- MIC Enterococcus faecalis (GC 3059) (Enterococcus sp.): >128 µg/mL
- MIC Enterococcus faecalis (GC 4552) (Enterococcus sp.): >128 µg/mL
- MIC Enterococcus faecalis (GC 4553) (Enterococcus sp.): >128 µg/mL
- MIC Enterococcus faecalis (GC 4554) (Enterococcus sp.): >128 µg/mL
- MIC Enterococcus faecalis (GC 6189) (Enterococcus sp.): >128 µg/mL
- MIC Enterococcus faecium (GC 2243) (Enterococcus sp.): >128 µg/mL
- MIC Enterococcus faecium (GC 4556) (Enterococcus sp.): >128 µg/mL
- MIC Enterococcus faecium (GC 4557) (Enterococcus sp.): >128 µg/mL
- MIC Enterococcus faecalis (GC 2242) (Enterococcus sp.; strain GC 2242): >128 µg/mL
- MIC Enterococcus faecalis (GC 2691) (Enterococcus sp.; strain GC 2691): >128 µg/mL
- MIC Enterococcus faecalis (GC 3059) (Enterococcus sp.; strain GC 3059): >128 µg/mL
- MIC Staphylococcus aureus (ATCC 29213) (Staphylococcus sp.; strain ATCC 29213): >128 µg/mL
- MIC Staphylococcus aureus (GC 1131) (Staphylococcus sp.; strain GC 1131): >128 µg/mL
- MIC Staphylococcus aureus (GC 3051) (Staphylococcus sp.; strain GC 3051): >128 µg/mL
- MIC Staphylococcus aureus (GC 3053) (Staphylococcus sp.; strain GC 3053): >128 µg/mL
- MIC Staphylococcus aureus (GC 4541) (Staphylococcus sp.; strain GC 4541): >128 µg/mL
- MIC Staphylococcus aureus (GC 4542) (Staphylococcus sp.; strain GC 4542): >128 µg/mL
- MIC Staphylococcus aureus-SMITH (GC 4543) (Staphylococcus sp.): >128 µg/mL
- MIC Staphylococcus aureus (GC 4544) (Staphylococcus sp.; strain GC 4544): >128 µg/mL
- MIC Staphylococcus aureus (GC 4545) (Staphylococcus sp.; strain GC 4545): >128 µg/mL
- MIC Staphylococcus haemolyticus (GC 4546) (Staphylococcus sp.): >128 µg/mL
- MIC Coagulase Negative Staphylococcus (GC 4547) (Staphylococcus sp.; strain GC 4547): >128 µg/mL
- MIC Coagulase Negative Staphylococcus (GC 4548) (Staphylococcus sp.; strain GC 4548): >128 µg/mL
- MIC Coagulase Negative Staphylococcus (GC 4549) (Staphylococcus sp.; strain GC 4549): >128 µg/mL
- MIC Coagulase Negative Staphylococcus (GC 4551) (Staphylococcus sp.; strain GC 4551): >128 µg/mL
- MIC Coagulase Negative Staphylococcus (GC 6257) (Staphylococcus sp.; strain GC 6257): >128 µg/mL
- MIC Streptococcus agalactiae (GC 4564) (Streptococcus sp.): 128 µg/mL (≈ 93.7 µM)
- MIC Streptococcus pneumoniae (ATCC 6301) (Streptococcus sp.): >128 µg/mL
- MIC Streptococcus pneumoniae (GC 1894) (Streptococcus sp.): 128 µg/mL (≈ 93.7 µM)
- MIC Streptococcus pneumoniae (GC 4565) (Streptococcus sp.): >128 µg/mL
- MIC Streptococcus pyogenes (GC 4563) (Streptococcus sp.): >128 µg/mL
- MIC Streptococcus pneumoniae (ATCC 6301) (Streptococcus sp.; strain ATCC 6301): >128 µg/mL
- MIC Streptococcus pneumoniae (GC 1894) (Streptococcus sp.; strain GC 1894): 128 µg/mL (≈ 93.7 µM)
- MIC Streptococcus pyogenes (GC 4563) (Streptococcus sp.; strain GC 4563): >128 µg/mL
- MIC Streptococcus agalactiae (GC 4564) (Streptococcus sp.; strain GC 4564): 128 µg/mL (≈ 93.7 µM)
- MIC Streptococcus pneumoniae (GC 4565) (Streptococcus sp.; strain GC 4565): >128 µg/mL
- Anatomical Pathology (Day 10), Heart [1]: 0
- Anatomical Pathology (Day 10), Kidney [1]: 0
- MIC Escherichia coli (ATCC 25922) (Escherichia coli): >128 µg/mL
- MIC Escherichia coli (GC 4559) (Escherichia coli): >128 µg/mL
- MIC Escherichia coli (GC 4560) (Escherichia coli): >128 µg/mL

SMILES: CC(c1ccccc1)C1NC(=O)CNC(=O)C(CO)NC(=O)C(C(O)C2CN(Cc3ccc(-c4ccccc4)cc3)C(=N)N2C2OC(CO)C(O)C(O)C2O)NC(=O)C(C(O)C2CNC(=NCc3ccc(-c4ccccc4)cc3)N2Cc2ccc(-c3ccccc3)cc2)NC(=O)C(Cc2ccc(OC3OC(CO)C(OC4OC(CO)C(O)C(O)C4O)C(O)C3O)cc2)NC1=O (stereo not drawn) [Example 66, Cyclo[glycyl-β-methylphenylalanyl-O-(4-O-hexopyranosylhexopyranosyl)tyrosl-3-[3-(4-phenylbenzyl)-2-(4-phenylbenzyl)iminolimidazolidin-4-yl]seryl-3-[3-hexopyranosyl-2-imino-1-(4-phenylbenzyl)-imidazolidin-4-yl]serylseryl]]
- MIC Enterococcus avium (GC 4558) (Enterococcus sp.): 4 µg/mL (≈ 2.23 µM)
- MIC Enterococcus faecalis (ATCC 29212) (Enterococcus sp.): 16 µg/mL (≈ 8.92 µM)
- MIC Enterococcus faecalis (GC 2242) (Enterococcus sp.): 16 µg/mL (≈ 8.92 µM)
- MIC Enterococcus faecalis (GC 2691) (Enterococcus sp.): 32 µg/mL (≈ 17.8 µM)
- MIC Enterococcus faecalis (GC 3059) (Enterococcus sp.): 32 µg/mL (≈ 17.8 µM)
- MIC Enterococcus faecalis (GC 4552) (Enterococcus sp.): 32 µg/mL (≈ 17.8 µM)
- MIC Enterococcus faecalis (GC 4553) (Enterococcus sp.): 8 µg/mL (≈ 4.46 µM)
- MIC Enterococcus faecalis (GC 4554) (Enterococcus sp.): 64 µg/mL (≈ 35.7 µM)
- MIC Enterococcus faecalis (GC 6189) (Enterococcus sp.): 32 µg/mL (≈ 17.8 µM)
- MIC Enterococcus faecium (GC 2243) (Enterococcus sp.): 8 µg/mL (≈ 4.46 µM)
- MIC Enterococcus faecium (GC 4556) (Enterococcus sp.): 32 µg/mL (≈ 17.8 µM)
- MIC Enterococcus faecium (GC 4557) (Enterococcus sp.): 4 µg/mL (≈ 2.23 µM)
- MIC Enterococcus faecalis (GC 2242) (Enterococcus sp.; strain GC 2242): 16 µg/mL (≈ 8.92 µM)
- MIC Enterococcus faecalis (GC 2691) (Enterococcus sp.; strain GC 2691): 32 µg/mL (≈ 17.8 µM)
- MIC Enterococcus faecalis (GC 3059) (Enterococcus sp.; strain GC 3059): 32 µg/mL (≈ 17.8 µM)
- MIC Staphylococcus aureus-SMITH (GC 4543) (Staphylococcus sp.): 8 µg/mL (≈ 4.46 µM)
- MIC Staphylococcus haemolyticus (GC 4546) (Staphylococcus sp.): 4 µg/mL (≈ 2.23 µM)
- MIC Streptococcus agalactiae (GC 4564) (Streptococcus sp.): 32 µg/mL (≈ 17.8 µM)
- MIC Streptococcus pneumoniae (ATCC 6301) (Streptococcus sp.): 32 µg/mL (≈ 17.8 µM)
- MIC Streptococcus pneumoniae (GC 1894) (Streptococcus sp.): 32 µg/mL (≈ 17.8 µM)
- MIC Streptococcus pneumoniae (GC 4565) (Streptococcus sp.): 64 µg/mL (≈ 35.7 µM)
- MIC Streptococcus pyogenes (GC 4563) (Streptococcus sp.): 16 µg/mL (≈ 8.92 µM)
- MIC Streptococcus pneumoniae (ATCC 6301) (Streptococcus sp.; strain ATCC 6301): 32 µg/mL (≈ 17.8 µM)
- MIC Streptococcus pneumoniae (GC 1894) (Streptococcus sp.; strain GC 1894): 32 µg/mL (≈ 17.8 µM)
- MIC Streptococcus pyogenes (GC 4563) (Streptococcus sp.; strain GC 4563): 16 µg/mL (≈ 8.92 µM)
- MIC Streptococcus agalactiae (GC 4564) (Streptococcus sp.; strain GC 4564): 32 µg/mL (≈ 17.8 µM)
- MIC Streptococcus pneumoniae (GC 4565) (Streptococcus sp.; strain GC 4565): 64 µg/mL (≈ 35.7 µM)
- Anatomical Pathology (Day 10), Heart [1]: 0
- Anatomical Pathology (Day 10), Kidney [1]: 0
- MIC Escherichia coli (ATCC 25922) (Escherichia coli): >128 µg/mL
- MIC Escherichia coli (GC 4559) (Escherichia coli): >128 µg/mL
- MIC Escherichia coli (GC 4560) (Escherichia coli): 4 µg/mL (≈ 2.23 µM)
